Common to all, as to assay: KINOMEscan competition binding
Common to all, as to details: compound 10.0 µM

Test [1] concerns ABL1 (human), P00519 [H396P].
Test [2] concerns ABL1 (human), P00519 [Y253F].
Test [3] deals with EGFR (human), P00533 [747-751 del / S ins].
In test [4] the test system is EGFR (human), P00533 [752-759 del].
For test [5], the system named is EGFR (human), P00533 [T790M/L858R].
Test [6] concerns FLT3 (human), P36888 [D835H].
For test [7], the system named is KIT (human), P10721 [L576P].
Test [8] relates to KIT (human), P10721 [V559D/V654A].
Test [9] deals with MET (human), P08581 [Y1235D].
The subject of test [10] is RET (human), P07949 [M918T].
Test [11] deals with RET (human), P07949 [V804M].
Test [12] relates to EGFR (human), P00533 [T790M].
For test [13], the system named is ALK (human), Q9UM73 [C1156Y].
The test system of test [14] is ALK (human), Q9UM73 [L1196M].
In test [15] the test system is FLT3 (human), P36888 [R834Q].

The values below come from the kinase profiling compilation of Christmann-Franck et al. (2016).

Sequence of RET (human), P07949 [V804M] (P07949 whole entry V804M, looked up): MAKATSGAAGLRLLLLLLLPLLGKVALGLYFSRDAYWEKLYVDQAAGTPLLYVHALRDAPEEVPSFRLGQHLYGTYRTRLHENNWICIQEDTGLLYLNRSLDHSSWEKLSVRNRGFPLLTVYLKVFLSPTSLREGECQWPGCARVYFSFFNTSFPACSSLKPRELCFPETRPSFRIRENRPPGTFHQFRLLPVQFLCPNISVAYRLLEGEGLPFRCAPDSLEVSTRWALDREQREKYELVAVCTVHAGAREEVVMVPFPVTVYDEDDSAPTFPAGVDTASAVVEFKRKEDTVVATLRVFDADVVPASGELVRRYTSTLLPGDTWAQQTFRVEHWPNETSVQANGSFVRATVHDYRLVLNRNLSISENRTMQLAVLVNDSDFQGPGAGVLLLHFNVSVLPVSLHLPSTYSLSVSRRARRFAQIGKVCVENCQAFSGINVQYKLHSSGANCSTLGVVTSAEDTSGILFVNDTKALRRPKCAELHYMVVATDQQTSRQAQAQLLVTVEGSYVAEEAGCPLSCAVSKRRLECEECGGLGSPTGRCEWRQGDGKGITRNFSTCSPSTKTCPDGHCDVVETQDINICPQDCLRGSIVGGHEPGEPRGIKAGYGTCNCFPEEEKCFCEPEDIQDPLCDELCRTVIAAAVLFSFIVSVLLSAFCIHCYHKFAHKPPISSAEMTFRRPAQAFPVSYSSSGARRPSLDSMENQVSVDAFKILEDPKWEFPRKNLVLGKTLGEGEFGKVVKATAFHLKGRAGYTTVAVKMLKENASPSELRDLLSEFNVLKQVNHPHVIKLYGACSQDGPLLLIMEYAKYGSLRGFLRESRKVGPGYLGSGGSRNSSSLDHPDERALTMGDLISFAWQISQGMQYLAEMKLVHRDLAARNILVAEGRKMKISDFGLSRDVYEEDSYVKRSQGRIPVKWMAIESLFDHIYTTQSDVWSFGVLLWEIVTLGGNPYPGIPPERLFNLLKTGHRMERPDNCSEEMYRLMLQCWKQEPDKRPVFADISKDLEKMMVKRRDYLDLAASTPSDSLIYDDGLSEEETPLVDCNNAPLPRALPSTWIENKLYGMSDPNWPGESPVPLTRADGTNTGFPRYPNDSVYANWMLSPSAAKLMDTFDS
Sequence of KIT (human), P10721 [V559D/V654A] (P10721 whole entry V559D/V654A, looked up): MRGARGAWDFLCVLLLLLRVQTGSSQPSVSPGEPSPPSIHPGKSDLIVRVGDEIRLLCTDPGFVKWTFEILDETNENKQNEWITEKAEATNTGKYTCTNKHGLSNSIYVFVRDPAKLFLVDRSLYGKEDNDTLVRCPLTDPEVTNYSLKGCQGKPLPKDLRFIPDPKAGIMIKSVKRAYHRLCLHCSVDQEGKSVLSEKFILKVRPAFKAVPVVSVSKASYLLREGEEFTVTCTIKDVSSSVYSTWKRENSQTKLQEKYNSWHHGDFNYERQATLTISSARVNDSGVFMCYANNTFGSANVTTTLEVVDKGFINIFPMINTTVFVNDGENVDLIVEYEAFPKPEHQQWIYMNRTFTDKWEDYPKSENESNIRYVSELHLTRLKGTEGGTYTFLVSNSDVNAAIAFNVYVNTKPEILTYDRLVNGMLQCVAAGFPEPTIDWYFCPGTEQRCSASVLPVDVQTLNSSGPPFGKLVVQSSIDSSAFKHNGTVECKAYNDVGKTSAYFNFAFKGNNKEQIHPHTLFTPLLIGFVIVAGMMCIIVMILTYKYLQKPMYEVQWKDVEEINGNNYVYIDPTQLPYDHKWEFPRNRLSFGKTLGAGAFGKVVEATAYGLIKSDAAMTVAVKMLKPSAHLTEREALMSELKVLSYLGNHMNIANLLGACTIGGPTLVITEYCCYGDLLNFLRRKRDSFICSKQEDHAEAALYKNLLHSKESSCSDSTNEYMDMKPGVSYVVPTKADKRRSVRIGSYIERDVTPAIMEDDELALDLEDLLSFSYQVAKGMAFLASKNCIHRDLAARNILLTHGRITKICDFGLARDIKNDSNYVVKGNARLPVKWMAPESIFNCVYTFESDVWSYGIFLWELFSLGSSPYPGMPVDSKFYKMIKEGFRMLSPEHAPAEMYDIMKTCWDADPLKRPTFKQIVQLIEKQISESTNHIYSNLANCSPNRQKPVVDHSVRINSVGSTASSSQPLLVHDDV
Sequence of KIT (human), P10721 [L576P] (P10721 whole entry L576P, looked up): as the sequence (P10721 whole entry V559D/V654A, looked up) above, with D559V, L576P, A654V counted along it
Sequence of RET (human), P07949 [M918T] (P07949 whole entry M918T, looked up): as the sequence (P07949 whole entry V804M, looked up) above, with M804V, M918T counted along it
Sequence of ALK (human), Q9UM73 [C1156Y] (Q9UM73 whole entry C1156Y, looked up): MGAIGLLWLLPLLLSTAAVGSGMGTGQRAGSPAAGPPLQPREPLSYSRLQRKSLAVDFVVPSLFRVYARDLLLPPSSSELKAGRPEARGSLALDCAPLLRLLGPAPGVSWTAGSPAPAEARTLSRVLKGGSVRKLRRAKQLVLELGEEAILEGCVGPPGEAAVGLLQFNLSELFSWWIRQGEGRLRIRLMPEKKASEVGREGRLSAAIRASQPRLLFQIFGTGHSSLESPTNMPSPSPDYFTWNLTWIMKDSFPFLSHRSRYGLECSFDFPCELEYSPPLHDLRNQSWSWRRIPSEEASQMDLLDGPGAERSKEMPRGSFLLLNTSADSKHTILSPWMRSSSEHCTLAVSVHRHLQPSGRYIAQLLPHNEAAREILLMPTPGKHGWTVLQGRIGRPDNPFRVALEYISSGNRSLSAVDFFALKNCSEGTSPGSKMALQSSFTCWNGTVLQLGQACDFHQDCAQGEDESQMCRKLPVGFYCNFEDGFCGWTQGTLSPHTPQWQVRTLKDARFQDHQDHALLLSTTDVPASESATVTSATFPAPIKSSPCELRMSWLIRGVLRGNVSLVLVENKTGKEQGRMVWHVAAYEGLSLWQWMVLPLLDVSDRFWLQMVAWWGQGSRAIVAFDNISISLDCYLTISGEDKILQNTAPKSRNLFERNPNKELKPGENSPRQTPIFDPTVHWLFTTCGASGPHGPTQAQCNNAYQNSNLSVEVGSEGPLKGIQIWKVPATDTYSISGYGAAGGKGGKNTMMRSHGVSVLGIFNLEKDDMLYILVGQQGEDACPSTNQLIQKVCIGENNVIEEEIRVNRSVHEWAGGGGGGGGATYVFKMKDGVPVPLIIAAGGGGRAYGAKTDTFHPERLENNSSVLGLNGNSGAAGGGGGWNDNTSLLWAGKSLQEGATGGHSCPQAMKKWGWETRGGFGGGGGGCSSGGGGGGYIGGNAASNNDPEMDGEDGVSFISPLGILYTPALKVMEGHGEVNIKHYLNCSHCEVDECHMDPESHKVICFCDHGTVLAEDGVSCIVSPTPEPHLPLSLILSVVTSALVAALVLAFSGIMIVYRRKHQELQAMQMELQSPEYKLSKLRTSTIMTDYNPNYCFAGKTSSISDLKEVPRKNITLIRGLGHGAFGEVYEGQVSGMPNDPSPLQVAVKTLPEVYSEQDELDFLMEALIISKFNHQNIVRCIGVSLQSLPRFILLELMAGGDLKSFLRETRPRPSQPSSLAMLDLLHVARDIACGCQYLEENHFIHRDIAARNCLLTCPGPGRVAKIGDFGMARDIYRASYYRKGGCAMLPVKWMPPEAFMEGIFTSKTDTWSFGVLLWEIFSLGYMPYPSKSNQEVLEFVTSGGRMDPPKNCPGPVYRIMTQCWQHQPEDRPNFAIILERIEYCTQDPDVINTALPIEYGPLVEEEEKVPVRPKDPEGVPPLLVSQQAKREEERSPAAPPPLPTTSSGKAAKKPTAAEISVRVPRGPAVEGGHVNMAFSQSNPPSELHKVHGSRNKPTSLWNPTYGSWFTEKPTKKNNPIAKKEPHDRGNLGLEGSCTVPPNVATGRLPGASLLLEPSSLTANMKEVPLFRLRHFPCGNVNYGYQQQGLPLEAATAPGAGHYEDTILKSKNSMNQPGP
Sequence of ALK (human), Q9UM73 [L1196M] (Q9UM73 whole entry L1196M, looked up): as the sequence (Q9UM73 whole entry C1156Y, looked up) above, with Y1156C, L1196M counted along it

With `COc1cc(C(=O)NC2CCN(C)CC2)ccc1Nc1ncc2c(n1)N(C1CCCC1)CCC(=O)N2C(C)C`, the kinase still bound, per cent of control in [1], in test [2], in test [3], in [4], in test [5] and in test [6] was 100% in each case. Moreover, the kinase still bound, per cent of control in test [7] worked out at 100%; in [8] it was 100%; in test [9], 100%; in [10], 0%; in test [11], 100%.
As to `CCC(=O)N1CCN(c2ccc(-n3c(=O)ccc4cnc5ccc(-c6cnc7ccccc7c6)cc5c43)cc2C(F)(F)F)CC1`, the kinase still bound, per cent of control in test [1] was 68%; in [3], 80%; in test [4], 84%; in test [5] it was 100%; in test [12] it was 100%; in test [6], 18%. Moreover, the kinase still bound, per cent of control in [7] worked out at 48%; in [9] it was 100%; in [10] it was 51%; in [11] it was 69%.
Turning to `Cn1c(=O)n(-c2ccc(C(C)(C)C#N)cc2)c2c3cc(-c4cnc5ccccc5c4)ccc3ncc21`, the kinase still bound, per cent of control in test [1] was found to be 100%; in test [2], 100%; in test [3], 100%; in [4] it was 100%; in test [5], 100%; in [6], 21%. Besides, the kinase still bound, per cent of control in test [7], in [8], in [10] and in test [11] was 100% in each case.
On to `COc1cc(N2CCC(C(N)=O)CC2)ccc1Nc1nc(N)c(Cl)c(Nc2ccccc2S(=O)(=O)C(C)C)n1`, for which the kinase still bound, per cent of control is 100% in [1]; 100% in [2]; 0.75% in test [3]; 1.2% in test [4]; 11% in [6]; 100% in test [8]. Besides, the kinase still bound, per cent of control in test [10] and in test [11] was 100% in each case.
For the compound `O=c1[nH]c2ccccc2n1C1CCN(Cc2ccc(-c3nc4cc5[nH]cnc5cc4nc3-c3ccccc3)cc2)CC1`, the kinase still bound, per cent of control in test [2] was 72%; in test [13] it was 55%; in [14], 64%; in test [3], 92%; in test [4], 58%; in test [5] it was 100%. For the same compound, the kinase still bound, per cent of control in test [12] was determined as 67%; in test [6] it was 74%; in [15] it was 100%; in [7] it was 87%; in test [8] it was 92%; in test [9] it was 68%. The kinase still bound, per cent of control in [10] came to 79%; in test [11], 91%.
As for `COc1ccc(N(C(=O)Oc2cc(C(=O)Nc3cccc(C(F)(F)F)c3)ccc2C)c2ccnc(Nc3ccc(N4CCN(C)CC4)cc3)n2)c(OC)c1`, the kinase still bound, per cent of control in test [1] came to 3.6%; in test [2], 1.3%; in [3], 0.4%; in [4], 0.9%; in test [6], 100%; in test [8], 9%. For the same compound, the kinase still bound, per cent of control in [10] came to 0.3%.
Regarding `COc1cc(C(=O)NC2CCN(C)CC2)ccc1Nc1ncc2c(n1)N(C1CCCC1)C(C)CC(=O)N2C` (stereo not given), the kinase still bound, per cent of control in [1], in [2], in [3], in [4], in [6] and in test [8] was 100% in each case. For the same compound, the kinase still bound, per cent of control in test [10] and in test [11] was 100% each time.
In the case of `CCc1nc(-c2cccc(C)c2)c(-c2ccnc(NC(=O)c3ccccc3)c2)s1`, the kinase still bound, per cent of control in test [1] turned out to be 3%; in test [2], 26%; in [7] it was 51%; in test [10] it was 72%; in [11] it was 94%.
In the case of `COc1cc(C)c(Sc2cnc(NC(=O)c3ccc(CNC(C)C(C)C)cc3)s2)cc1C(=O)N1CCN(C(C)=O)CC1` (stereo not given), the kinase still bound, per cent of control in test [1] is 100%; in [2] it was 100%; in test [3] it was 100%; in [4], 100%; in [6], 14%; in test [8], 100%. Moreover, the kinase still bound, per cent of control in test [10] came out at 32%; in [11], 100%.
With `OCCCNc1cc(-c2ccnc(Nc3cccc(Cl)c3)n2)ccn1`, the kinase still bound, per cent of control in [1], in [2], in test [3], in test [4], in [5] and in test [6] was 100% each time. In addition, the kinase still bound, per cent of control in test [7], in test [8], in [9], in test [10] and in [11] was 100% throughout.
On to `Cc1ccc(C(=O)Nc2cccc(C(F)(F)F)c2)cc1Nc1cncc(C(N)=O)c1`, for which the kinase still bound, per cent of control is 100% in test [1]; 100% in test [2]; 100% in test [3]; 100% in [4]; 100% in test [6]; 18% in test [8]. Moreover, the kinase still bound, per cent of control in [10] and in test [11] was 100% each time.
On to `Cc1cn(-c2cc(C(=O)Nc3ccc(C)c(NC(=O)c4ccno4)c3)cc(C(F)(F)F)c2)cn1`, for which the kinase still bound, per cent of control came to 16% in [1]; 7.4% in test [2]; 100% in [3]; 100% in test [4]; 100% in [5]; 100% in [6]. In addition, the kinase still bound, per cent of control in [7] stood at 0%; in test [8] it was 5.4%; in test [9], 100%; in [10], 100%; in test [11] it was 100%.
With `C=CC(=O)Nc1cccc(Oc2nc(Nc3ccc(N4CCN(C)CC4)cc3OC)ncc2Cl)c1`, the kinase still bound, per cent of control in test [1] stood at 100%; in test [2] it was 100%; in test [3], 0%; in test [4], 0.25%; in test [6] it was 4%; in [8] it was 100%. Also, the kinase still bound, per cent of control in test [10] and in [11] was 100% in each case.
With `CCOc1cc(N2CCC(O)CC2)ccc1Nc1ncc2c(n1)N(C)c1ccccc1C(=O)N2C`, the kinase still bound, per cent of control in [1], in test [2], in test [3], in test [4], in test [5] and in [6] was 100% each time. The kinase still bound, per cent of control in [7], in test [8], in test [9], in [10] and in test [11] was 100% throughout.
